{
  "source": "paper PMC8364686",
  "about": "“Safety, tolerability, pharmacokinetics and pharmacodynamics of single oral doses of BI 187004, an inhibitor of 11beta-hydroxysteroid dehydrogenase-1, in healthy male volunteers with overweight or obesity” (Clinical Diabetes and Endocrinology, 2021)",
  "origin": "cited, not measured here",
  "key": {"11beta-HSD1 in AT": {"tested_on": "11beta-HSD1 in AT", "details": "single dose, cited from earlier work"}, "11beta-HSD1": {"tested_on": "11beta-HSD1", "details": "cited from earlier work"}},
  "note": "Like-named read-outs stand apart in the source and are kept apart here.",
  "data": [
    {"smiles": "CC(C)[C@]1(C)SC(=N[C@H]2C[C@@H]3CC[C@H]2C3)NC1=O", "note": "[AMG 221]", "values": [
      {"measurement": "11beta-HSD1 inhibition in AT", "setting": "11beta-HSD1 in AT; 24-h study duration", "result": "> 90", "unit": "%"}
    ]},
    {"smiles": "CCCSc1nc(N2CCC[C@@H](CC(=O)O)C2)ccc1C(=O)NC1CCCCC1", "note": "[AZD4017]", "values": [
      {"measurement": "Maximum decrease in urinary (aTHF + THF)/THE ratio", "setting": "11beta-HSD1; highest dose of 900 mg, after 9 days", "result": 92, "unit": "%"}
    ]},
    {"smiles": "C[C@@H](c1ccc(-c2ccn(C)c(=O)c2)cc1)N1CC[C@](CC(C)(C)O)(c2ccccc2)OC1=O", "note": "[BI 135585]", "values": [
      {"measurement": "11beta-HSD1 inhibition in AT", "setting": "11beta-HSD1 in AT; 24 h after dosing", "result": 90, "unit": "%"}
    ]},
    {"smiles": "N#Cc1ccc(-c2ccc(S(=O)(=O)Nc3cccc(N)n3)cc2)cc1", "note": "[PF-915275]", "values": [
      {"measurement": "Maximum decrease in urinary (aTHF + THF)/THE ratio", "setting": "11beta-HSD1; after 14 days of treatment", "result": 26, "unit": "%"}
    ]}
  ]
}
